Measured values taken from patent US6436705B1, “Shape stabilized erythrocytes” (The United States of America as represented by the …, priority 1997, dated 2002).

Assays:
Human erythrocytes = assay: Osmotic fragility test; assay type: cell-based; conditions: 5 mM DTBP
Procedure: An osmotic fragility test (a common clinical test) was performed on erythrocytes cross-linked with 5 mM DTBP for different incubation times and on erythrocytes cross-linked and reversed with DTT. Briefly, 1 ml of the erythrocyte suspension was taken out at regular incubation times, centrifuged, and DTBP or DTT was removed (Eppendorf centrifuge for 3 min at 3000×g). 1 ml of solutions containing buffered sodium sodium chloride at different concentrations (from 1% to 0.1% NaCl in phosphate buffer) were added to the packed cells. After 30 min the samples were centrifugated (Eppendorf centrifuge for 3 min at 3000×g), and the supernatants were processed for hemolysis measurements.

Red blood cells = assay: Deformability measurements with an ektacytometer (Shear-scan, Osmo-scan); assay type: cell-based, human; conditions: 5 mM DTBP for 1 h
Procedure: Red blood cells were cross-linked with 5 mM DTBP for 1 h. Cross-linking was reversed with 10 mM DTT for 20 min. Deformability measurements were made with fresh untreated, cross-linked, and reversed cells as well as with untreated packed cells stored in CPDA-1 for 6 weeks at 4° C. The effects of cross-linking and reversal on red blood cell deformability were measured with an ektacytometer (Technicon).
The ektacytometer is a laser diffraction viscometer described in detail by Bessiss and Mohandas. Intact red blood cells and ghosts suspended in solution produce a diffuse circular laser diffraction pattern. The instrument takes advantage of the fact that when a shear force is applied to the solution crossing the beam the cells align in the direction of shear and begin deforming into uniformly oriented ellipsoids. The laser diffraction pattern then takes on an ellipsoidal shape oriented 90° from the major elliptical cell axis, with the ratio of the long axis to the short axis length determined by the degree of cell deformation. A signal proportional to mean cellular ellipticity is derived from photometric measurement of this laser diffraction pattern in the two axis directions and is designated the deformability index (DI).
Two types of deformability profiles were generated in the present experiments. […] Shear-scans were run with 40 μl of concentrated cell suspension (80% hematocrit) mixed with 3.0 ml of 3.1% (w/v) polyvinylpyrrolidone (P, av-MW 360 kD) solution containing 138 mM NaCl, 6.34 mM Na2HPO4, 2 mM NaH2PO4, and 0.04% (w/v) NaN3 with pH=7.35±0.05, osmolality=290 mOsmol/kg (by freezing point depression), and viscosity=20 cp (assumed). Osmo-scans were run by continuous addition of this suspension medium containing 100 μl of cells to a PVP solution with a graded salt concentration. Salt gradients were made by addition of high salt PVP solution with 386 mM NaCI (osmolality=750 mOsmol/kg) to a low salt PVP solution with 2.5 mM NaCl (osmolality=40 mOsmol/kg). Conductance measurements of the cell suspension in the viscometer provided an indirect measure of osmolality, which was calculated from a standard calibration curve.
Data was recorded onto a computer, and curves were fitted and plotted using custom routines in Matlab (The Math Works Inc, Natick, Mass.). Shear scans were fitted with a polynomial of degree 6 from which the maximum DI (DImax) was calculated. Osmo-scans were fitted with a running average, and DImax was calculated within the range of 180-240 mOsmol/Kg, along with the osmolality corresponding to 1/2DImax at hypertonic salt concentrations (0′), where DI decreases with increasing intracellular viscosity secondary to cell shrinkage and increased hemoglobin concentration (see Mohandas et al., J. Clin. Invest. 66563-73(1980)). The osmolality corresponding to the minimum DI (Omin) at hypotonic salt concentrations, where DI falls due to cell swelling, was also calculated. The height of the small DI peak thought to be associated with the sudden availability of excess membrane for deformation as intracellular ions and water are lost in the lower range of hypotonic salt (63-125 mOsmol/Kg) concentrations was also recorded (see Clark et al., Blood 61 899-910 (1983)).

erythrocytes = assay: Assay of capacity for shape change (LPC-induced echinocytosis, microscopy); assay type: cell-based, human; conditions: 5 mM DTBP for 1 h, then 10 μg/ml LPC
Procedure: Microscopy. Cross-linked and reversed cells were prepared as described in the section on erythrocyte preparation, etc., with the addition of 0.5% bovine serum albumin to the solution prior microscopic examination. Cells were examined using an Nikon Optiphot, equipped with PlanApo 20×objective.
Assay of capacity for shape change. To induce echinocytosis ([…]), erythrocytes were incubated with 10μg/ml LPC for 2 min at room temperature. Erythrocytes were pretreated with 5 mM DTBP for 1 h and then subjected to 10 μg/ml LPC treatment. Microscopic examination of cell morphology was performed. Erythrocytes were pretreated with 5 mM DTBP for 1 h, reversed with 10 mM DTT for 20 min and then subjected to 10 μg/ml LPC treatment. Microscopic examination followed. Erythrocyte response to LPC of normal, cross-linked and reversed cells was compared.

Red cells = assay: Oxygen carrying ability (oxygen content by CO-oximeter); assay type: cell-based, human; conditions: CO-treated
Procedure: A semi-quantitative measure of oxygen carrying ability by DTBP cross-linked and reversed cells was performed. Red cells cross linked with 5 mM DTBP for different incubation times and cells reversed with DTT (see above) were processed through a membrane oxygenator to replace CO with oxygen. Oxygen saturation of the cells was measured using a CO-oximeter. After the oxygenation, cells were subjected to deoxygenation under a stream of nitrogen for 30 min. Percentage oxygen was measured again by the CO-oximeter. Oxygen binding and releasing properties for cross-linked, reversed and normal cells were compared.
We measured oxygen content (Vol%O2) of cells subjected to cross-linking and reversal with a CO-oximeter 282. […] CO-treated and cross-linked cells with 5 mM DTBP for 5 h, which underwent re-oxygenation in the membrane oxygenator had oxygen content of 7.3 Vol%O2.

With `COC(=N)CCSSCCC(=N)OC` [DTBP, Dimethyl-3,3′-dithiobispropionimidate] the “NaCl concentration at which hemolysis started” value (Human erythrocytes; 1 h cross-linked cells) was 0.4 % NaCl, the “NaCl concentration at which total lysis was first measured” value (Human erythrocytes; 1 h cross-linked cells) was 0.1 % NaCl and the “NaCl concentration at which hemolysis started” value (Human erythrocytes; 3 h cross-linked cells) was 0.30 % NaCl. The “NaCl concentration at which total lysis was first measured” value (Human erythrocytes; 3 h cross-linked cells) was 0.0 % NaCl, the DImax (Red blood cells; Osmo-scan) was 0.30 and the “Omin (osmolality corresponding to the minimum DI)” value (Red blood cells; Osmo-scan) was 125 mOsmol/Kg. For the same compound, the “O′ (osmolality corresponding to 1/2DImax at hypertonic salt)” value (Red blood cells; Osmo-scan) was 264 mOsmol/Kg, the “reduction of DImax” value (Red blood cells; Osmo-scan, FIG. 7) was 36% and the “reduction of red cell deformability as a function of shear stress” value (Red blood cells; Shear-scan, FIG. 6) was “over half”. The “effect on LPC-induced echinocytosis” value (erythrocytes) was “completely blocked”, the oxygen content (Red cells; 5 mM DTBP 5 h, re-oxygenated then deoxygenated with nitrogen) was 2.9 Vol%O2 and the oxygen content (Red cells; 5 mM DTBP for 5 h, re-oxygenated in membrane oxygenator) was 7.3 Vol%O2.
